For the test, the target named is SREBP-2 (Homo sapiens (Human), UniProt Q12772). Briefly: In vitro assay SREBP-2: PathHunter U2OS SREBP-2 Nuclear Translocation Cell Line, U18666A-stimulated. It is filed as cell-based.
[1] abbreviates: PathHunter U2OS SREBP-2 nuclear translocation cells, U18666A 10 μM, overnight (16 hours).

Read-outs that look alike come from different tables or passages of the source. Some results are limits rather than exact numbers.

One may read the IC50 as the concentration at which inhibition is half-maximal. Lower therefore signals higher potency. `C[C@H](OCC(=O)N1CCC(C)(CO)CC1)[C@H]1CC[C@H]2[C@@H]3CC=C4C[C@@H](O)CC[C@]4(C)[C@H]3CC[C@]12C` [Example 366, 2-((S)-1-((3S,8S,9S,10R,13S,14S,17S)-3-hydroxy-10,13-dimethyl-2,3,4,7,8,9,10,11,12,13,14,15,16,17-tetradecahydro-1H-cyclopenta[a]phenanthren-17-yl)ethoxy)-1-(4-(hydroxymethyl)-4-methylpiperidin-1-yl)ethan-1-one]: the IC50 under setting [1] was 250 to 1000 nM. The same measure, in the same setting: to `C[C@H](CC[C@](O)(C1CC1)C(F)(F)F)[C@H]1CC[C@H]2[C@@H]3CC=C4C[C@@](C)(O)CC[C@]4(C)[C@H]3CC[C@]12C` [Example 368, (3S,8S,9S,10R,13R,14S,17R)-17-((2R,5S)-5-cyclopropyl-6,6,6-trifluoro-5-hydroxyhexan-2-yl)-3,10,13-trimethyl-2,3,4,7,8,9,10,11,12,13,14,15,16,17-tetradecahydro-1H-cyclopenta[a]phenanthren-3-ol] belongs 250 to 1000 nM. Still for that read-out and setting: the same measure for `CCC1(O)CCN(C(=O)CCC[C@H]2CC[C@H]3[C@@H]4CC=C5C[C@@H](O)CC[C@]5(C)[C@H]4CC[C@]23C)CC1` [Example 370, 1-(4-ethyl-4-hydroxypiperidin-1-yl)-4-((3S,8S,9S,10R,13R,14S,17S)-3-hydroxy-10,13-dimethyl-2,3,4,7,8,9,10,11,12,13,14,15,16,17-tetradecahydro-1H-cyclopenta[a]phenanthren-17-yl)butan-1-one]: 250 to 1000 nM. `CCC1(O)CCN(C(=O)CC[C@@H](C)[C@H]2CC[C@H]3[C@@H]4CC=C5C[C@@](C)(O)CC[C@]5(C)[C@H]4CC[C@]23C)CC1` [Example 371, (R)-1-(4-ethyl-4-hydroxypiperidin-1-yl)-4-((3S,8S,9S,10R,13R,14S,17R)-3-hydroxy-3,10,13-trimethyl-2,3,4,7,8,9,10,11,12,13,14,15,16,17-tetradecahydro-1H-cyclopenta[a]phenanthren-17-yl)pentan-1-one] yielded an IC50 under setting [1] of 250 to 1000 nM. `C[C@H](Oc1ccccn1)[C@H]1CC[C@H]2[C@@H]3CC=C4C[C@@H](O)CC[C@]4(C)[C@H]3CC[C@]12C` [Example 381, (3S,8S,9S,10R,13S,14S,17S)-10,13-dimethyl-17-((S)-1-(pyridin-2-yloxy)ethyl)-2,3,4,7,8,9,10,11,12,13,14,15,16,17-tetradecahydro-1H-cyclopenta[a]phenanthren-3-ol] displayed an IC50 under setting [1] of 1000 to 10000 nM. `C[C@H](CCC(=O)N1CCN(c2ncccn2)CC1)[C@H]1CC[C@H]2[C@@H]3CC=C4C[C@@H](O)CC[C@]4(C)[C@H]3CC[C@]12C` [Example 397, (R)-4-((3S,8S,9S,10R,13R,14S,17R)-3-hydroxy-10,13-dimethyl-2,3,4,7,8,9,10,11,12,13,14,15,16,17-tetradecahydro-1H-cyclopenta[a]phenanthren-17-yl)-1-(4-(pyrimidin-2-yl)piperazin-1-yl)pentan-1-one]: the concentration for half-maximal inhibition (IC50) under setting [1] was < 250 nM. On the same count and under the same terms, the same measure for `CC(=O)N1CCC(C(=O)N(C)CC[C@@H](C)[C@H]2CC[C@H]3[C@@H]4CC=C5C[C@@H](O)CC[C@]5(C)[C@H]4CC[C@]23C)CC1` [Example 408, 1-acetyl-N—((R)-3-((3S,8S,9S,10R,13R,14S,17R)-3-hydroxy-10,13-dimethyl-2,3,4,7,8,9,10,11,12,13,14,15,16,17-tetradecahydro-1H-cyclopenta[a]phenanthren-17-yl)butyl)-N-methylpiperidine-4-carboxamide]: 250 to 1000 nM; for `C[C@H](CCC(=O)N1CCC(N(C)S(C)(=O)=O)CC1)[C@H]1CC[C@H]2[C@@H]3CC=C4C[C@@H](O)CC[C@]4(C)[C@H]3CC[C@]12C` [Example 415, N-{1-[(4R)-4-[(1R,3aS,3bS,7S,9aR,9bS,11aR)-7-hydroxy-9a,11a-dimethyl-1H,2H,3H,3aH,3bH,4H,6H,7H,8H,9H,9aH,9bH,10H,11H,11aH-cyclopenta[a]phenanthren-1-yl]pentanoyl]piperidin-4-yl}-N-methylmethanesulfonamide]: 250 to 1000 nM; for `C[C@H](CCC(=O)N1CCC(OC(=O)N(C)C)CC1)[C@H]1CC[C@H]2[C@@H]3CC=C4C[C@@H](O)CC[C@]4(C)[C@H]3CC[C@]12C` [Example 418, 1-((R)-4-((3S,8S,9S,10R,13R,14S,17R)-3-hydroxy-10,13-dimethyl-2,3,4,7,8,9,10,11,12,13,14,15,16,17-tetradecahydro-1H-cyclopenta[a]phenanthren-17-yl)pentanoyl)piperidin-4-yl dimethylcarbamate]: 1000 to 10000 nM. Consider `COC(=O)N1CCN(C(=O)CC[C@@H](C)[C@H]2CC[C@H]3[C@@H]4CC=C5C[C@](O)(C(F)(F)F)CC[C@]5(C)[C@H]4CC[C@]23C)CC1` [Example 419, Methyl 4-((R)-4-((3S,8S,9S,10R,13R,14S,17R)-3-hydroxy-10,13-dimethyl-3-(trifluoromethyl)-2,3,4,7,8,9,10,11,12,13,14,15,16,17-tetradecahydro-1H-cyclopenta[a]phenanthren-17-yl)pentanoyl)piperazine-1-carboxylate], for which the IC50 under setting [1] was in the range of 1000 to 10000 nM. As to `C[C@H](CCC(=O)N1CCN(C(=O)OC2COC2)CC1)[C@H]1CC[C@H]2[C@@H]3CC=C4C[C@@H](O)CC[C@]4(C)[C@H]3CC[C@]12C` [Example 425, oxetan-3-yl4-((R)-4-((3S,8S,9S,10R,13R,14S,17R)-3-hydroxy-10,13-dimethyl-2,3,4,7,8,9,10,11,12,13,14,15,16,17-tetradecahydro-1H-cyclopenta[a]phenanthren-17-yl)pentanoyl)piperazine-1-carboxylate], the IC50 is < 250 nM.

On to `Cc1ncccc1O[C@@H](C)[C@H]1CC[C@H]2[C@@H]3CC=C4C[C@@H](O)CC[C@]4(C)[C@H]3CC[C@]12C` [Example 430, (1S,3aS,3bS,7S,9aR,9bS,11aS)-9a,11a-dimethyl-1-[(1S)-1-[(2-methylpyridin-3-yl)oxy]ethyl]-1H,2H,3H,3aH,3bH,4H,6H,7H,8H,9H,9aH,9bH,10H,11H,11aH-cyclopenta[a]phenanthren-7-ol], for which, under setting [1], the IC50 was 250 to 1000 nM. As for `Cc1cncc(O[C@@H](C)[C@H]2CC[C@H]3[C@@H]4CC=C5C[C@@H](O)CC[C@]5(C)[C@H]4CC[C@]23C)c1` [Example 432, (3S,8S,9S,10R,13S,14S,17S)-10,13-dimethyl-17-((S)-1-((5-methylpyridin-3-yl)oxy)ethyl)-2,3,4,7,8,9,10,11,12,13,14,15,16,17-tetradecahydro-1H-cyclopenta[a]phenanthren-3-ol], under setting [1], the IC50 is < 250 nM. In the case of `Cc1ccncc1O[C@@H](C)[C@H]1CC[C@H]2[C@@H]3CC=C4C[C@@H](O)CC[C@]4(C)[C@H]3CC[C@]12C` [Example 433, (3S,8S,9S,10R,13S,14S,17S)-10,13-dimethyl-17-((S)-1-((4-methylpyridin-3-yl)oxy)ethyl)-2,3,4,7,8,9,10,11,12,13,14,15,16,17-tetradecahydro-1H-cyclopenta[a]phenanthren-3-ol], under setting [1], the IC50 was in the range of 250 to 1000 nM. Same read-out and setting: the same measure for `C[C@H](Oc1cccnc1CO)[C@H]1CC[C@H]2[C@@H]3CC=C4C[C@@H](O)CC[C@]4(C)[C@H]3CC[C@]12C` [Example 434, (3S,8S,9S,10R,13S,14S,17S)-17-((S)-1-((2-(hydroxymethyl)pyridin-3-yl)oxy)ethyl)-10,13-dim ethyl-2,3,4,7,8,9,10,11,12,13,14,15,16,17-tetradecahydro-1H-cyclopenta[a]phenanthren-3-ol]: 250 to 1000 nM; for `C[C@H](Oc1ccc(CO)nc1)[C@H]1CC[C@H]2[C@@H]3CC=C4C[C@@H](O)CC[C@]4(C)[C@H]3CC[C@]12C` [Example 435, (3S,8S,9S,10R,13S,14S,17S)-17-((S)-1-((6-(hydroxymethyl)pyridin-3-yl)oxy)ethyl)-10,13-dim ethyl-2,3,4,7,8,9,10,11,12,13,14,15,16,17-tetradecahydro-1H-cyclopenta[a]phenanthren-3-ol]: 250 to 1000 nM. The same measure, in the same setting: the same measure for `C[C@H](Oc1cncc(CO)c1)[C@H]1CC[C@H]2[C@@H]3CC=C4C[C@@H](O)CC[C@]4(C)[C@H]3CC[C@]12C` [Example 436, (3S,8S,9S,10R,13S,14S,17S)-17-((S)-1-((5-(hydroxymethyl)pyridin-3-yl)oxy)ethyl)-10,13-dim ethyl-2,3,4,7,8,9,10,11,12,13,14,15,16,17-tetradecahydro-1H-cyclopenta[a]phenanthren-3-ol]: 250 to 1000 nM. The same measure, in the same setting: to `C[C@H](Oc1cnccc1CO)[C@H]1CC[C@H]2[C@@H]3CC=C4C[C@@H](O)CC[C@]4(C)[C@H]3CC[C@]12C` [Example 437, (3S,8S,9S,10R,13S,14S,17S)-17-((S)-1-((4-(hydroxymethyl)pyridin-3-yl)oxy)ethyl)-10,13-dim ethyl-2,3,4,7,8,9,10,11,12,13,14,15,16,17-tetradecahydro-1H-cyclopenta[a]phenanthren-3-ol] belongs 250 to 1000 nM; to `CNC(=O)c1ccc(O[C@@H](C)[C@H]2CC[C@H]3[C@@H]4CC=C5C[C@@H](O)CC[C@]5(C)[C@H]4CC[C@]23C)cn1` [Example 438, 5-((S)-1-((3S,8S,9S,10R,13S,14S,17S)-3-hydroxy-10,13-dimethyl-2,3,4,7,8,9,10,11,12,13,14,15,16,17-tetradecahydro-1H-cyclopenta[a]phenanthren-17-yl)ethoxy)-N-methylpicolinamide], 250 to 1000 nM; to `Cc1cccc(OC[C@@H](C)[C@H]2CC[C@H]3[C@@H]4CC=C5C[C@@H](O)CC[C@]5(C)[C@H]4CC[C@]23C)n1` [Example 440, (1R,3aS,3bS,7S,9aR,9bS,11aS)-9a,11a-dimethyl-1-[(2S)-1-[(6-methylpyridin-2-yl)oxy]propan-2-yl]-1H,2H,3H,3aH,3bH,4H,6H,7H,8H,9H,9aH,9bH,10H,11H,11aH-cyclopenta[a]phenanthren-7-ol], 250 to 1000 nM. As to `Cc1ccc(OC[C@@H](C)[C@H]2CC[C@H]3[C@@H]4CC=C5C[C@@H](O)CC[C@]5(C)[C@H]4CC[C@]23C)nc1` [Example 441, (3S,8S,9S,10R,13S,14S,17R)-10,13-dimethyl-17-((S)-1-((5-methylpyridin-2-yl)oxy)propan-2-yl)-2,3,4,7,8,9,10,11,12,13,14,15,16,17-tetradecahydro-1H-cyclopenta[a]phenanthren-3-ol], under setting [1], the IC50 is 250 to 1000 nM.

For the origin of these results see patent US20230340011A1 (Asteroid Therapeutics, priority 2022, published 2023).
